Our source for the T/C values is PubChem BioAssay AID234 (DTP/NCI, 2004).

For this assay, the system named is C3AKF1 mice, hamster liver cystadenocarcinoma s.c., tumor weight T/C. Description: NCI In Vivo Anticancer Drug Screen. Data for tumor model Cystadenocarcinoma, Liver (No. 1) (Hamster) (subcutaneous) in C3AKF1 (CHKRF1) mice. Conditions: endpoint: mean tumor weight, higher = larger tumour. The procedure: The antitumor activity of compounds was measured in mice bearing transplantable tumors. Survival or tumor size were measured and the results are expressed as the measurement made in the treated group (T) divided by the measurement made in the vehicle treated control group (C). The tumor model used in this assay is Cystadenocarcinoma, Liver (No. 1) (Hamster) (subcutaneous) in C3AKF1 (CHKRF1) mice

Where [1] appears, read: dose: 10.0 mg/kg/injection, schedule: Q01DX010 (ip), vehicle: carboxymethylcellulose (CMC).
Where [2] appears, read: dose: 20.0 mg/kg/injection, schedule: Q01DX010 (ip), vehicle: carboxymethylcellulose (CMC).
The mark [3] stands for this setting: dose: 40.0 mg/kg/injection, schedule: Q01DX010 (ip), vehicle: carboxymethylcellulose (CMC).
Setting [4] is: dose: 125.0 mg/kg/injection, schedule: Q01DX010 (ip), vehicle: carboxymethylcellulose (CMC).
The mark [5] stands for this setting: dose: 250.0 mg/kg/injection, schedule: Q01DX010 (ip), vehicle: carboxymethylcellulose (CMC).
Where [6] appears, read: dose: 12.0 mg/kg/injection, schedule: Q01DX010 (ip), vehicle: carboxymethylcellulose (CMC).
Where [7] appears, read: dose: 25.0 mg/kg/injection, schedule: Q01DX010 (ip), vehicle: carboxymethylcellulose (CMC).
Where [8] appears, read: dose: 50.0 mg/kg/injection, schedule: Q01DX010 (ip), vehicle: carboxymethylcellulose (CMC).
Setting [9] is: dose: 100.0 mg/kg/injection, schedule: Q01DX010 (ip), vehicle: carboxymethylcellulose (CMC).
Setting [10] is: dose: 30.0 mg/kg/injection, schedule: Q01DX010 (ip), vehicle: carboxymethylcellulose (CMC).
Where [11] appears, read: dose: 60.0 mg/kg/injection, schedule: Q01DX010 (ip), vehicle: carboxymethylcellulose (CMC).
[12] abbreviates: dose: 62.5 mg/kg/injection, schedule: Q01DX010 (ip), vehicle: carboxymethylcellulose (CMC).
The mark [13] stands for this setting: dose: 0.75 mg/kg/injection, schedule: Q01DX010 (ip), vehicle: saline.
Setting [14] is: dose: 200.0 mg/kg/injection, schedule: Q01DX010 (ip), vehicle: carboxymethylcellulose (CMC).
[15] abbreviates: dose: 2.5 mg/kg/injection, schedule: Q01DX010 (ip), vehicle: carboxymethylcellulose (CMC).
Where [16] appears, read: dose: 5.0 mg/kg/injection, schedule: Q01DX010 (ip), vehicle: carboxymethylcellulose (CMC).
The mark [17] stands for this setting: dose: 15.0 mg/kg/injection, schedule: Q01DX010 (ip), vehicle: carboxymethylcellulose (CMC).

Several values for one entry are separate records, joined by “and”; a condition that tells them apart may be missing. Identical values can stand only once. Records with an inconclusive call do not appear.

Consider `CCCC(Sc1nc(N)nc2nc[nH]c12)C(=O)O` (configuration not stated), for which the T/C was 66 % of control under setting [1]; 103 % of control under setting [2]; 123 % of control under setting [3]; 116 % of control and 118 % of control (dose: 80.0 mg/kg/injection, schedule: Q01DX010 (ip), vehicle: carboxymethylcellulose (CMC)); 76 % of control (dose: 160.0 mg/kg/injection, schedule: Q01DX010 (ip), vehicle: carboxymethylcellulose (CMC)).
Turning to `O=CC(O)CO` (configuration not stated), the T/C was 120 % of control under setting [4] and 108 % of control under setting [5].
Regarding `CSc1ncnc2c1ncn2C1CCCO1` (configuration not stated), the T/C by setting is: under setting [6], 70 % of control; under setting [7], 69 % of control; under setting [8], 72 % of control and 79 % of control; under setting [9], 63 % of control and 76 % of control.
With `CCC1=C(c2cc(Cl)c3ccccc3c2OCC(=O)O)OC(CC)(C(=O)c2cc(Cl)c3ccccc3c2OCC(=O)O)CC1` (configuration not stated), the T/C is, setting by setting: under setting [10], 90 % of control; under setting [11], 87 % of control; (dose: 120.0 mg/kg/injection, schedule: Q01DX010 (ip), vehicle: carboxymethylcellulose (CMC)) 64 % of control.
As for `Nc1nc(SCc2ccccc2Cl)c2ncn(C3OC(CO)C(O)C3O)c2n1` (configuration not stated), the T/C was 104 % of control (dose: 6.0 mg/kg/injection, schedule: Q01DX010 (ip), vehicle: carboxymethylcellulose (CMC)); 85 % of control under setting [6]; 112 % of control under setting [7].
As to `CCCCCCCCCCCCn1c(C)nc2ccccc21`, the T/C runs as follows: (dose: 2.0 mg/kg/injection, schedule: Q01DX010 (ip), vehicle: carboxymethylcellulose (CMC)) 79 % of control; (dose: 8.0 mg/kg/injection, schedule: Q01DX010 (ip), vehicle: carboxymethylcellulose (CMC)) 62 % of control.
For the compound `COC(=O)/C=C\C(=O)O` (tested in a mixture with another compound), the T/C was 105 % of control (dose: 3.5 mg/kg/injection, schedule: Q#A X020 (ip), vehicle: carboxymethylcellulose (CMC)); 49 % of control (dose: 7.5 mg/kg/injection, schedule: Q#A X020 (ip), vehicle: carboxymethylcellulose (CMC)); 38 % of control (dose: 15.0 mg/kg/injection, schedule: Q#A X020 (ip), vehicle: carboxymethylcellulose (CMC)).
Regarding `CC(Cl)CN(Cc1cc(O)c(CN(CC(C)Cl)CC(C)Cl)cc1O)CC(C)Cl` (configuration not stated), the T/C under setting [12] was 64 % of control.
Consider `CCCC(=O)NC1=C(N2CC2)C(=O)C(NC(=O)CCC)=C(N2CC2)C1=O`, for which the T/C by setting is: (dose: 0.5 mg/kg/injection, schedule: Q01DX010 (ip), vehicle: saline) 69 % of control and 86 % of control; under setting [13], 47 % of control and 49 % of control; (dose: 1.7 mg/kg/injection, schedule: Q01DX010 (ip), vehicle: saline) 32 % of control and 48 % of control; (dose: 2.6 mg/kg/injection, schedule: Q01DX010 (ip), vehicle: saline) 14 % of control.
As to `CCOC(=O)NC`, the T/C was 64 % of control (dose: 75.0 mg/kg/injection, schedule: Q01DX010 (ip), vehicle: saline); 83 % of control (dose: 150.0 mg/kg/injection, schedule: Q01DX010 (ip), vehicle: saline); 93 % of control (dose: 300.0 mg/kg/injection, schedule: Q01DX010 (ip), vehicle: saline); 83 % of control (dose: 600.0 mg/kg/injection, schedule: Q01DX010 (ip), vehicle: saline).
As for `Oc1ccc2ccccc2c1N=Nc1ccccc1`, the T/C runs as follows: under setting [7], 102 % of control; under setting [8], 84 % of control; under setting [9], 75 % of control; under setting [14], 72 % of control.
For the compound `CCC[CH2][Sn]([CH2]CCC)([CH2]CCC)[O]C(=O)CC[S][Sn]([CH2]CCC)([CH2]CCC)[CH2]CCC`, the T/C by setting is: under setting [13], 111 % of control; (dose: 1.5 mg/kg/injection, schedule: Q01DX010 (ip), vehicle: saline) 77 % of control; (dose: 3.0 mg/kg/injection, schedule: Q01DX010 (ip), vehicle: saline) 100 % of control; (dose: 6.0 mg/kg/injection, schedule: Q01DX010 (ip), vehicle: saline) 83 % of control and 84 % of control; (dose: 12.0 mg/kg/injection, schedule: Q01DX010 (ip), vehicle: saline) 92 % of control; (dose: 24.0 mg/kg/injection, schedule: Q01DX010 (ip), vehicle: saline) 93 % of control.
Regarding `O=C(O)CCc1c[nH]c2ccc(N(CCCl)CCCl)cc12`, the T/C by setting is: (dose: 1.2 mg/kg/injection, schedule: Q01DX010 (ip), vehicle: carboxymethylcellulose (CMC)) 109 % of control; under setting [15], 97 % of control; under setting [16], 77 % of control; under setting [1], 69 % of control.
Turning to `CCCCSc1nc(N)nc2c1ncn2CC(C)CC` (configuration not stated), the T/C reads like this: (dose: 62.0 mg/kg/injection, schedule: Q01DX010 (ip), vehicle: carboxymethylcellulose (CMC)) 64 % of control; under setting [4], 82 % of control; under setting [5], 86 % of control and 94 % of control; (dose: 750.0 mg/kg/injection, schedule: Q01DX010 (ip), vehicle: carboxymethylcellulose (CMC)) 54 % of control.
With `NC(N)=N/N=C/C=N/N=C(N)N`, the T/C under setting [10] is 98 % of control.
With `O=C1C=Cc2ccc(O)cc2C1=O`, the T/C runs as follows: (dose: 1.25 mg/kg/injection, schedule: Q01DX010 (ip), vehicle: carboxymethylcellulose (CMC)) 71 % of control; under setting [15], 72 % of control; under setting [16], 74 % of control; under setting [1], 88 % of control and 89 % of control; under setting [2], 74 % of control.
For the compound `CCN(CC)CCNc1ccc([N+](=O)[O-])c2sc3ccccc3c(=O)c12`, the T/C by setting is: (dose: 20.0 mg/kg/injection, schedule: Q01DX010 (ip), vehicle: saline) 98 % of control; (dose: 40.0 mg/kg/injection, schedule: Q01DX010 (ip), vehicle: saline) 70 % of control.
Turning to `ClCCn1cnc2c(SCc3ccccc3)ncnc21`, the T/C runs as follows: under setting [8], 75 % of control; under setting [9], 84 % of control and 97 % of control; under setting [14], 86 % of control and 89 % of control; (dose: 400.0 mg/kg/injection, schedule: Q01DX010 (ip), vehicle: carboxymethylcellulose (CMC)) 68 % of control and 80 % of control; (dose: 600.0 mg/kg/injection, schedule: Q01DX010 (ip), vehicle: carboxymethylcellulose (CMC)) 73 % of control.
For the compound `Cc1ccc(N2CCN(CCCN3CCN(c4ccc(Cl)cc4)CC3)CC2)cc1`, the T/C (dose: 7.5 mg/kg/injection, schedule: Q01DX010 (ip), vehicle: carboxymethylcellulose (CMC)) is 94 % of control; the T/C under setting [17] is 98 % of control; the T/C under setting [10] was 94 % of control.
With `[I][Hg][CH2]C1COCC([CH2][Hg][I])O1.[I][Hg][CH2]C1COCC([CH2][Hg][I])O1` (configuration not stated), the T/C runs as follows: under setting [1], 83 % of control; under setting [2], 109 % of control; under setting [3], 91 % of control.
Consider `Fc1ccc(CSc2ncnc3c2ncn3C2CCCCO2)cc1` (configuration not stated), for which the T/C (dose: 45.0 mg/kg/injection, schedule: Q01DX010 (ip), vehicle: carboxymethylcellulose (CMC)) is 102 % of control; the T/C (dose: 90.0 mg/kg/injection, schedule: Q01DX010 (ip), vehicle: carboxymethylcellulose (CMC)) is 111 % of control; the T/C (dose: 360.0 mg/kg/injection, schedule: Q01DX010 (ip), vehicle: carboxymethylcellulose (CMC)) is 57 % of control and 78 % of control; the T/C (dose: 720.0 mg/kg/injection, schedule: Q01DX010 (ip), vehicle: carboxymethylcellulose (CMC)) is 75 % of control.
Take `S=C(N=Nc1ccccc1)NNc1ccccc1`: the T/C (dose: 37.5 mg/kg/injection, schedule: Q01DX010 (ip), vehicle: carboxymethylcellulose (CMC)) is 98 % of control.
In the case of `CC1CC(C)OS(=O)O1` (configuration not stated), the T/C (dose: 44.0 mg/kg/injection, schedule: Q01DX010 (ip), vehicle: saline) is 65 % of control and the T/C (dose: 66.0 mg/kg/injection, schedule: Q01DX010 (ip), vehicle: saline) was 81 % of control.
Take `O=C1N(Cl)C(=O)C(c2ccc(Cl)cc2)(c2ccc(Cl)cc2)N1Cl`: the T/C was 67 % of control under setting [17], 85 % of control under setting [10] and 61 % of control under setting [11].
As for `O=c1[nH]cnc2n[nH]nc12`, the T/C was 112 % of control under setting [12]; 77 % of control under setting [4]; 60 % of control under setting [5]; 68 % of control (dose: 500.0 mg/kg/injection, schedule: Q01DX010 (ip), vehicle: carboxymethylcellulose (CMC)).
